In US20240016831A1 (priority 2020, published 2024):

Key:
[1] = format: physicochemical
[2] = test system: SARS-CoV-2 clinical isolate; format: cell-based
[3] = test system: Vero E6 cells

Which “cumulative levels of NO” value ([1]; pH 5.8) does the source give for `OC[C@@H](O)[C@@H](O)[C@H](O)[C@H](O)CO` [mannitol, D-mannitol] here?
The value was 1400 nmol NO per mg nitrite.

What about the “difference in cumulative NO with and without mannitol” value ([1]; pH 6.2) of the same molecule?
Its value is “differences have disappeared”.

For `CCN(CC)CCCC(C)Nc1ccnc2cc(Cl)ccc12` (stereo not drawn) [chloroquine, Chloroquine Phosphate, reference compound], which SARS-CoV-2 virus titre [2] is on record?
Its SARS-CoV-2 virus titre is “limit of detection (LOD)”.

What does the source list for `O=C(O)CC(O)(CC(=O)O)C(=O)O` [citric acid pH 5.8, citric acid]?
in vitro antiviral action against SARS-CoV-2 [2]: high in vitro antiviral action; cytotoxicity on the LDH assay [3]: low cytotoxicity

With `OC[C@@H](O)[C@H](O)[C@@H](O)CO` [xylitol] as the molecule, how does the “cumulative nitric oxide evolution” value ([1]; after 3000 s) read?
Its value is “about 20000 nmol per mg nitrite”.
